Laboratory results as given in ChEMBL document CHEMBL3797068, “eCF309: a potent, selective and cell-permeable mTOR inhibitor” (Medchemcomm, 2016).
Calls of active or inactive are those of the source. No cut-off for these calls is given here.

Tests used:
[1] = biological target: T1, Epithelial discoidin domain-containing receptor 1 (Homo sapiens, UniProt Q08345); assay: Inhibition of human DDR1 using (poly [Glu, Tyr] 4:1) as substrate assessed as incorporation of 33P in substrate by [gamma33P] ATP-based kinase assay
[2] = biological target: T2, Serine/threonine-protein kinase mTOR (Homo sapiens, UniProt P42345); assay: Inhibition of recombinant human mTOR by LanthaScreen Kinase assay
[3] = biological target: T3, Phosphatidylinositol 4,5-bisphosphate 3-kinase catalytic subunit alpha isoform (Homo sapiens, UniProt P42336); assay: Inhibition of PI3Kalpha (unknown origin) using PIP2 as substrate by HTRF assay
[4] = biological target: T4, Phosphatidylinositol 4,5-bisphosphate 3-kinase catalytic subunit beta isoform (Homo sapiens, UniProt P42338); assay: Inhibition of PI3Kbeta (unknown origin) using PIP2 as substrate by HTRF assay
[5] = biological target: T5, Phosphatidylinositol 4,5-bisphosphate 3-kinase catalytic subunit gamma isoform (Homo sapiens, UniProt P48736); assay: Inhibition of PI3Kgamma (unknown origin) using PIP2 as substrate by HTRF assay
Target sequence in this assay (P48736 whole entry, canonical isoform): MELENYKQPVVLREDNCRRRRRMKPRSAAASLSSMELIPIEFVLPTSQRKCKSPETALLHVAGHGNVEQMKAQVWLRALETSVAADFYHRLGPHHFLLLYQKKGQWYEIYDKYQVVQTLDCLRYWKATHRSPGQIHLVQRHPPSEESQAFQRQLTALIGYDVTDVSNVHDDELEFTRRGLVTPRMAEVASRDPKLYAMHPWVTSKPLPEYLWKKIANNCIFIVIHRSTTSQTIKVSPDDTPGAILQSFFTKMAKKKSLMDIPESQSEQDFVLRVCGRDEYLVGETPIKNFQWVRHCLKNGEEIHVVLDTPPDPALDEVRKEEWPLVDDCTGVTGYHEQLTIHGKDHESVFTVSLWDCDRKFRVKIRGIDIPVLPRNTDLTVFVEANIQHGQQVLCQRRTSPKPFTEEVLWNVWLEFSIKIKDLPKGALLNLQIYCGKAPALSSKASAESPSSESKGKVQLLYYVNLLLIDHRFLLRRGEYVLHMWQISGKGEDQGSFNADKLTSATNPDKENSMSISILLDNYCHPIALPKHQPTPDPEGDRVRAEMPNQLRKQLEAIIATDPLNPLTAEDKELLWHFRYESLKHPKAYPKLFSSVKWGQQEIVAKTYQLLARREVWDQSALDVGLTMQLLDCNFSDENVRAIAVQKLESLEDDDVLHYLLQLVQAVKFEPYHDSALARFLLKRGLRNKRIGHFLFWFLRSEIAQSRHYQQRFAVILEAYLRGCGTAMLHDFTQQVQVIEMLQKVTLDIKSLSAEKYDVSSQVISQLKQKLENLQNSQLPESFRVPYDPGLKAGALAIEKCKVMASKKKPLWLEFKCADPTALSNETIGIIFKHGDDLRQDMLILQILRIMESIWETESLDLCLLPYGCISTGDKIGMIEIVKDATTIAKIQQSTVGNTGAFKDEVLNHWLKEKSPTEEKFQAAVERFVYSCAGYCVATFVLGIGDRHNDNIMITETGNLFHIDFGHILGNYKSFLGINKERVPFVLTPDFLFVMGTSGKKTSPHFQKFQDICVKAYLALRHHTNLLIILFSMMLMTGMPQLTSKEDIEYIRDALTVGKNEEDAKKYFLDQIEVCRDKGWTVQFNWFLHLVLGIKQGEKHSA

[6] = biological target: T6, Phosphatidylinositol 4,5-bisphosphate 3-kinase catalytic subunit delta isoform (Homo sapiens, UniProt O00329); assay: Inhibition of PI3Kdelta (unknown origin) using PIP2 as substrate by HTRF assay
T6 sequence (O00329 whole entry): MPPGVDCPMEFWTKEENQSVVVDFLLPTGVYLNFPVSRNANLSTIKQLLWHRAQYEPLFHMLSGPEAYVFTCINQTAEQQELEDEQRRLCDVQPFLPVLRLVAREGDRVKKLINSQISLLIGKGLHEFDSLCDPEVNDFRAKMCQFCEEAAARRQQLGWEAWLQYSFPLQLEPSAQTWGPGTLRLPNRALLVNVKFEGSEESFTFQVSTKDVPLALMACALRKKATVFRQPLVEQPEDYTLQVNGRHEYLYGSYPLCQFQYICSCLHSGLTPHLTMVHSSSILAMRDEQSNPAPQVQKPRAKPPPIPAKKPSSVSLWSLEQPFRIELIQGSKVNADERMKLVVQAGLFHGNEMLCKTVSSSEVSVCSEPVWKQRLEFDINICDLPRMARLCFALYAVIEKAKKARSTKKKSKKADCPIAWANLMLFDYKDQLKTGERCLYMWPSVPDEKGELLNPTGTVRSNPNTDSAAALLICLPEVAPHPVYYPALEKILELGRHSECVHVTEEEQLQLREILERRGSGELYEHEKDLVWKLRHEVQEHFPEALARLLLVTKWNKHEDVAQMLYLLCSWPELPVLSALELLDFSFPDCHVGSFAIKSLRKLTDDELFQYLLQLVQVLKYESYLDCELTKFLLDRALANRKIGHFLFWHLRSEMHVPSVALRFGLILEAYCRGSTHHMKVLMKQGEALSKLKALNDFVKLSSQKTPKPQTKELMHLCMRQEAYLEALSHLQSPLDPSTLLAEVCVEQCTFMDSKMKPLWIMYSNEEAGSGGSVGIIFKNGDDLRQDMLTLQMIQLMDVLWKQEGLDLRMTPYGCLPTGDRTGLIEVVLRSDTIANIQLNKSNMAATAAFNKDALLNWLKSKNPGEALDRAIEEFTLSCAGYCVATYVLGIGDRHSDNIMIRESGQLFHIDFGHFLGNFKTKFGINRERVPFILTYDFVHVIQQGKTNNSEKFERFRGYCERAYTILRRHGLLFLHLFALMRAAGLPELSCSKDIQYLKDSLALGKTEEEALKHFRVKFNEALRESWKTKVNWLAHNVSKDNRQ

[7] = biological target: T7, DNA-dependent protein kinase catalytic subunit (Homo sapiens, UniProt P78527); assay: Inhibition of human DNA-PK using (poly [Glu, Tyr] 4:1) as substrate assessed as incorporation of 33P in substrate by [gamma33P] ATP-based kinase assay
MCF7 [8] = assay: Cytotoxicity against human MCF7 cells after 5 days by Presto blue reagent-based fluorescence analysis; assay type: functional, cell-based; conditions: for EC50: MCF7, 120 h
MDA-MB-231 [9] = assay: Cytotoxicity against human MDA-MB-231 cells after 5 days by Presto blue reagent-based spectrofluorometric analysis; assay type: functional, cell-based; conditions: MDA-MB-231, 120 h
[10] = Cytotoxicity against human PC3 cells after 5 days by Presto blue reagent-based spectrofluorometric analysis; assay type: functional, cell-based; conditions: PC-3, 120 h
MCF7 [11] = assay: Cell cycle arrest in human MCF7 cells assessed as increase in G0/G1 population after 24 hrs by Hoechst 33342 staining-based fluorescence analysis; assay type: functional
MDA-MB-231 [12] = assay: Cell cycle arrest in human MDA-MB-231 cells assessed as increase in G0/G1 population after 24 hrs by Hoechst 33342 staining-based fluorescence analysis; assay type: functional
[13] = Cell cycle arrest in human PC3 cells assessed as increase in G0/G1 population after 24 hrs by Hoechst 33342 staining-based fluorescence analysis; assay type: functional; conditions: PC-3
[14] = biological target: Tyrosine-protein kinase Blk (Homo sapiens, UniProt P51451); assay: Inhibition of human BLK using (poly [Glu, Tyr] 4:1) as substrate assessed as incorporation of 33P in substrate by [gamma33P] ATP-based kinase assay
[15] = biological target: Tyrosine-protein kinase ABL1 (Homo sapiens, UniProt P00519); assay: Inhibition of human ABL using (poly [Glu, Tyr] 4:1) as substrate assessed as incorporation of 33P in substrate by [gamma33P] ATP-based kinase assay
[16] = biological target: Platelet-derived growth factor receptor alpha (Homo sapiens, UniProt P16234); assay: Inhibition of human PDGFRalpha using (poly [Glu, Tyr] 4:1) as substrate assessed as incorporation of 33P in substrate by [gamma33P] ATP-based kinase assay
[17] = biological target: Tyrosine-protein kinase Fyn (Homo sapiens, UniProt P06241); assay: Inhibition of human FYN using (poly [Glu, Tyr] 4:1) as substrate assessed as incorporation of 33P in substrate by [gamma33P] ATP-based kinase assay
[18] = biological target: Mast/stem cell growth factor receptor Kit (Homo sapiens, UniProt P10721); assay: Inhibition of human KIT using (poly [Glu, Tyr] 4:1) as substrate assessed as incorporation of 33P in substrate by [gamma33P] ATP-based kinase assay
[19] = biological target: Proto-oncogene tyrosine-protein kinase receptor Ret (Homo sapiens, UniProt P07949); assay: Inhibition of human RET using (poly [Glu, Tyr] 4:1) as substrate assessed as incorporation of 33P in substrate by [gamma33P] ATP-based kinase assay
[20] = biological target: Proto-oncogene tyrosine-protein kinase Src (Homo sapiens, UniProt P12931); assay: Inhibition of human SRC using (poly [Glu, Tyr] 4:1) as substrate assessed as incorporation of 33P in substrate by [gamma33P] ATP-based kinase assay
[21] = biological target: Tyrosine-protein kinase Yes (Homo sapiens, UniProt P07947); assay: Inhibition of human YES using (poly [Glu, Tyr] 4:1) as substrate assessed as incorporation of 33P in substrate by [gamma33P] ATP-based kinase assay
[22] = biological target: T3, Phosphatidylinositol 4,5-bisphosphate 3-kinase catalytic subunit alpha isoform; assay: Inhibition of PI3Kalpha (unknown origin) using (poly [Glu, Tyr] 4:1) as substrate assessed as incorporation of 33P in substrate by [gamma33P] ATP-based kinase assay
[23] = biological target: T4, Phosphatidylinositol 4,5-bisphosphate 3-kinase catalytic subunit beta isoform; assay: Inhibition of PI3Kbeta (unknown origin) using (poly [Glu, Tyr] 4:1) as substrate assessed as incorporation of 33P in substrate by [gamma33P] ATP-based kinase assay
[24] = biological target: T5, Phosphatidylinositol 4,5-bisphosphate 3-kinase catalytic subunit gamma isoform; assay: Inhibition of PI3Kgamma (unknown origin) using (poly [Glu, Tyr] 4:1) as substrate assessed as incorporation of 33P in substrate by [gamma33P] ATP-based kinase assay
Target sequence in this assay (P48736 whole entry, canonical isoform): as the sequence (P48736 whole entry, canonical isoform) above

[25] = biological target: T6, Phosphatidylinositol 4,5-bisphosphate 3-kinase catalytic subunit delta isoform; assay: Inhibition of PI3Kdelta (unknown origin) using (poly [Glu, Tyr] 4:1) as substrate assessed as incorporation of 33P in substrate by [gamma33P] ATP-based kinase assay
[26] = biological target: T3, Phosphatidylinositol 4,5-bisphosphate 3-kinase catalytic subunit alpha isoform; assay: Inhibition of human PI3Kalpha at 10 uM by kinome profiling method
[27] = biological target: T2, Serine/threonine-protein kinase mTOR; assay: Inhibition of human mTOR at 10 uM by kinome profiling method
[28] = biological target: T5, Phosphatidylinositol 4,5-bisphosphate 3-kinase catalytic subunit gamma isoform; assay: Inhibition of human PI3Kgamma at 10 uM by kinome profiling method
Target sequence in this assay (P48736 whole entry, looked up, canonical isoform): as the sequence (P48736 whole entry, canonical isoform) above

[29] = biological target: T7, DNA-dependent protein kinase catalytic subunit; assay: Inhibition of human DNA-PK at 10 uM by kinome profiling method
[30] = biological target: T1, Epithelial discoidin domain-containing receptor 1; assay: Inhibition of human DDR1 at 10 uM by kinome profiling method
mTORC1 (Homo sapiens) [31] = biological target: T8, mTORC1 (Homo sapiens) (UniProt P42345+Q8N122+Q9BVC4); assay: Inhibition of mTORC1 in human MCF7 cells assessed as reduction in phosphorylated P70S6K preincubated for 30 mins followed by serum stimulation for 1 hr by Western blot analysis; assay type: cell-based
mTORC1 (Homo sapiens) [32] = biological target: T8, mTORC1 (Homo sapiens); assay: Inhibition of mTORC1 in human MCF7 cells assessed as reduction in phosphorylated S6 preincubated for 30 mins followed by serum stimulation for 1 hr by Western blot analysis; assay type: cell-based
MCF7 [33] = assay: Inhibition of mTORC2 in human MCF7 cells assessed as reduction in phosphorylated AKT level preincubated for 30 mins followed by serum stimulation for 1 hr by Western blot analysis; assay type: cell-based
mTORC1 (Homo sapiens) [34] = biological target: T8, mTORC1 (Homo sapiens); assay: Inhibition of mTORC1 in human MCF7 cells assessed as reduction in phosphorylated P70S6K at 30 nM preincubated for 30 mins followed by serum stimulation for 1 hr by Western blot analysis; assay type: cell-based
mTORC1 (Homo sapiens) [35] = biological target: T8, mTORC1 (Homo sapiens); assay: Inhibition of mTORC1 in human MCF7 cells assessed as reduction in phosphorylated S6 at 30 nM preincubated for 30 mins followed by serum stimulation for 1 hr by Western blot analysis; assay type: cell-based
MCF7 [36] = assay: Inhibition of mTORC2 in human MCF7 cells assessed as reduction in phosphorylated AKT level at 30 nM preincubated for 30 mins followed by serum stimulation for 1 hr by Western blot analysis; assay type: cell-based
MCF7 [37] = assay: Cytotoxicity against human MCF7 cells assessed as cell viability at 1000 nM after 5 days by Presto blue reagent-based spectrofluorometric analysis; assay type: functional; conditions: MCF7, 120 h, read-out: Activity

T8 sequence (Q8N122 whole entry, looked up, other chains not shown): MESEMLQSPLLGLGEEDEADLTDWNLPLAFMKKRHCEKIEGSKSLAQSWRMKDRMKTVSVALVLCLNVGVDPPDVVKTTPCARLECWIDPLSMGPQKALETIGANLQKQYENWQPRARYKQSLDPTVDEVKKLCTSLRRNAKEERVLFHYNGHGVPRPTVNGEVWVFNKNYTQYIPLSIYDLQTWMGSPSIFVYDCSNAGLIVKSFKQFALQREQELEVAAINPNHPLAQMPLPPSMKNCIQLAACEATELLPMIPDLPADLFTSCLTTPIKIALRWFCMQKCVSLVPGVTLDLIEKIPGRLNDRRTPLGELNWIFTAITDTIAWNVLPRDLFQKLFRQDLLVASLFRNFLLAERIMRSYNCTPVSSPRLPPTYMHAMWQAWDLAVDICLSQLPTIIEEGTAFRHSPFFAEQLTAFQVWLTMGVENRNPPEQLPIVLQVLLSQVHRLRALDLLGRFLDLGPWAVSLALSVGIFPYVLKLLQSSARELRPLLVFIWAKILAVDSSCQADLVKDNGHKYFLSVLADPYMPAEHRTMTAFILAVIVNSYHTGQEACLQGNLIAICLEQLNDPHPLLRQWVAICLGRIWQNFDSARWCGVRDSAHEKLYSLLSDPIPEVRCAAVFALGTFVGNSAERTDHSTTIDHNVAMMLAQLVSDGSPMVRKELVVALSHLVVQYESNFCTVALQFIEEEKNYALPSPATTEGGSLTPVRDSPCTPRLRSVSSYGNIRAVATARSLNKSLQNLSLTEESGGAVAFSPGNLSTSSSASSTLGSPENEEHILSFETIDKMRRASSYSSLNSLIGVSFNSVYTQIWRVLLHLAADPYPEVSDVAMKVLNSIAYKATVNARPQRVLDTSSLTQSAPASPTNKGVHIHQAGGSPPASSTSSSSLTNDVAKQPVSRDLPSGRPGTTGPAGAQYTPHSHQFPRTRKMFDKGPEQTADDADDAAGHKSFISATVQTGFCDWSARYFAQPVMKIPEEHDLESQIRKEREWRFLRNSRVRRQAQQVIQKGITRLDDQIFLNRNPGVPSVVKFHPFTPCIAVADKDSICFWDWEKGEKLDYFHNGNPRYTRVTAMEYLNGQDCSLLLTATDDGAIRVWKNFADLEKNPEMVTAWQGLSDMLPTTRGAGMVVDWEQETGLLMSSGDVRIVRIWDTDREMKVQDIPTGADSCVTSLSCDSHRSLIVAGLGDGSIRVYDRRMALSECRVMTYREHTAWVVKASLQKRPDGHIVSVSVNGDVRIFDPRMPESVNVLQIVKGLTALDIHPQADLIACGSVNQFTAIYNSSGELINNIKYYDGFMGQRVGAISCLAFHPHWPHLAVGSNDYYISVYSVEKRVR
T8 sequence (Q9BVC4 whole entry, looked up, other chains not shown): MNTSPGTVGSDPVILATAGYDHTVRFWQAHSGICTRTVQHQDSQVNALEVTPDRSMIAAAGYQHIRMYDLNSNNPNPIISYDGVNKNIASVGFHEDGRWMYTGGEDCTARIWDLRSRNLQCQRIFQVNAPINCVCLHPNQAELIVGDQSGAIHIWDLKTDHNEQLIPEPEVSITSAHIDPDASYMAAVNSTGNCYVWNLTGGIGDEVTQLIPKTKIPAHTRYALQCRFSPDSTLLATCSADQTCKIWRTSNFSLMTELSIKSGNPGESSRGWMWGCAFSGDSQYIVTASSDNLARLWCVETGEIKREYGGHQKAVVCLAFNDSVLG
T1 sequence (Q08345 whole entry, the tested form may be a part): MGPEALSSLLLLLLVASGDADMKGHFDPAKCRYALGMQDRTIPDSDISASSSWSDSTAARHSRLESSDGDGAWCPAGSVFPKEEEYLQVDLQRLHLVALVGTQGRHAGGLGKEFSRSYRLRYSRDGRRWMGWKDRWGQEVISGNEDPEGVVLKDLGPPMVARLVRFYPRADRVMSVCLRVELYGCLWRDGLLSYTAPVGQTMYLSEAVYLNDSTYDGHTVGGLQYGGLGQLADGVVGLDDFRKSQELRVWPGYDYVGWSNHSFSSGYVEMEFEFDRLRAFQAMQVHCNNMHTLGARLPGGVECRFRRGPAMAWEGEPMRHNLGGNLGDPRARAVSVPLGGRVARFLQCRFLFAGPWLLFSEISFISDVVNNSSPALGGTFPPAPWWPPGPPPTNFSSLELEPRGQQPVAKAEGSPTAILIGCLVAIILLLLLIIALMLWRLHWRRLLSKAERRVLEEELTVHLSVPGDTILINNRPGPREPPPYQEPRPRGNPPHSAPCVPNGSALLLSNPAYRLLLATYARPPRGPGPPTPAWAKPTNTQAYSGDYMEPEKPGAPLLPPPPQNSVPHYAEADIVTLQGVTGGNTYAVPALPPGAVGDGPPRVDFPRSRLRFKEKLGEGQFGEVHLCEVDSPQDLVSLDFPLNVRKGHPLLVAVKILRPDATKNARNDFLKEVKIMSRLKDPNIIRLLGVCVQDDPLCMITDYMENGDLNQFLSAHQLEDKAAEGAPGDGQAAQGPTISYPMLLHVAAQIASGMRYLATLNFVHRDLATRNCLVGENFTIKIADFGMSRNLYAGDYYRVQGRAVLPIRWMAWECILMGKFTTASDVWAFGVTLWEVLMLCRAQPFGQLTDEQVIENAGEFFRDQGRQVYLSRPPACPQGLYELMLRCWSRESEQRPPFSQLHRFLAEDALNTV
T4 sequence (P42338 whole entry, canonical isoform): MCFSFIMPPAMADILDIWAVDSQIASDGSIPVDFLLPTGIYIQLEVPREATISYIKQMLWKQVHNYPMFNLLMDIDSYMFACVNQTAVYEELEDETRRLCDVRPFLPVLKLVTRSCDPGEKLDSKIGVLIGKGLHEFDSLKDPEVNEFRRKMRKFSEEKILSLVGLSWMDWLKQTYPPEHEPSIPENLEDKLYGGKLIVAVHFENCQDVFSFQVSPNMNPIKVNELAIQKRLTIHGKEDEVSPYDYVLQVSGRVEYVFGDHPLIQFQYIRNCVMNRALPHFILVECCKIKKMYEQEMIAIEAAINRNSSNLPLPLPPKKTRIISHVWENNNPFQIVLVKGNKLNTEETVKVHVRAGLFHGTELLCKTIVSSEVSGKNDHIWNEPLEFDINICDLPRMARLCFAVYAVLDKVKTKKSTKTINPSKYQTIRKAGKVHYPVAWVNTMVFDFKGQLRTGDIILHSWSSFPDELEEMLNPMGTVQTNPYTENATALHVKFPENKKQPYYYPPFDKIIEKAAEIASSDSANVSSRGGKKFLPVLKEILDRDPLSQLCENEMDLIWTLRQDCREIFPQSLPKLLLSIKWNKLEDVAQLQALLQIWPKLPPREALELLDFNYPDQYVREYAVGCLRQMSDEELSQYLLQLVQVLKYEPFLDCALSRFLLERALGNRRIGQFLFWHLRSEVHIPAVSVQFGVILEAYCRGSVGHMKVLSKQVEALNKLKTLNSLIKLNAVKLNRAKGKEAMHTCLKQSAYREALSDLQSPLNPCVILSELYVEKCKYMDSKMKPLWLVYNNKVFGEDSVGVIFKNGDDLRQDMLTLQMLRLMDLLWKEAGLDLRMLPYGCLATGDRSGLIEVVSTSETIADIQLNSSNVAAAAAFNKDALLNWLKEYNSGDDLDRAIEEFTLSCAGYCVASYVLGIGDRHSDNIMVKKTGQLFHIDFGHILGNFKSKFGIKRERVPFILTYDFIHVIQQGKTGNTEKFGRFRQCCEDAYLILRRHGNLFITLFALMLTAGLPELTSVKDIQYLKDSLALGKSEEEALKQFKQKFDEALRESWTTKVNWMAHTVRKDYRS

Nc1nc2cc(-c3nn(CC4CCCO4)c4ncnc(N)c34)ccc2o1 (stereo not given)
IC50 [1]: 137 nM
IC50 [2]: 5 nM
IC50 [3]: 44 nM
IC50 [4]: 1120 nM
IC50 [5]: 77 nM
IC50 [6]: 149 nM
IC50 [7]: 48 nM
EC50 (MCF7 [8]): 8 nM
EC50 (MDA-MB-231 [9]): 113 nM
EC50 [10]: 51 nM
Activity (MCF7 [11]): Active
Activity (MDA-MB-231 [12]): Active
Activity [13]: Active

CCOC(Cn1nc(-c2ccc3oc(N)nc3c2)c2c(N)ncnc21)OCC
IC50 [1]: 2110 nM
IC50 [14]: > 100000 nM
IC50 [15]: > 100000 nM
IC50 [16]: > 100000 nM
IC50 [17]: > 100000 nM
IC50 [18]: > 100000 nM
IC50 [19]: > 100000 nM
IC50 [20]: > 100000 nM
IC50 [21]: > 100000 nM
IC50 [22]: 981 nM
IC50 [23]: > 100000 nM
IC50 [24]: 1340 nM
IC50 [25]: 1840 nM
IC50 [3]: 981 nM
IC50 [4]: > 100000 nM
IC50 [5]: 1340 nM
IC50 [6]: 1840 nM
IC50 [7]: 320 nM
EC50 (MCF7 [8]): 8 nM
inhibition [26]: 65%
inhibition [27]: 99%
inhibition [28]: 85%
inhibition [29]: 90%
inhibition [30]: 77%
EC50 (MDA-MB-231 [9]): 72 nM
EC50 [10]: 37 nM
Activity (MCF7 [11]): Active
Activity (MDA-MB-231 [12]): Active
Activity [13]: Active
inhibition (mTORC1 (Homo sapiens) [31]): Dose-dependent effect
inhibition (mTORC1 (Homo sapiens) [32]): Dose-dependent effect
inhibition (MCF7 [33]): Dose-dependent effect
inhibition (mTORC1 (Homo sapiens) [34]): 100%
inhibition (mTORC1 (Homo sapiens) [35]): 100%
inhibition (MCF7 [36]): 100%

Nc1ncnc2c1c(-c1cnc3[nH]ccc3c1)nn2CC1OCCO1
Activity (MCF7 [8]): Active

Nc1nc2cc(-c3nn(CC4CCCC4)c4ncnc(N)c34)ccc2o1
IC50 [1]: 4.7 nM
IC50 [2]: 1.8 nM
IC50 [3]: 3.5 nM
IC50 [4]: 89 nM
IC50 [5]: 5 nM
IC50 [6]: 7.3 nM
IC50 [7]: 3 nM
EC50 (MCF7 [8]): 1.7 nM
EC50 (MDA-MB-231 [9]): 12 nM
EC50 [10]: 4 nM
Activity (MCF7 [11]): Active
Activity (MDA-MB-231 [12]): Active
Activity [13]: Active

CO[C@H]1C[C@@H]2CC[C@@H](C)[C@@](O)(O2)C(=O)C(=O)N2CCCC[C@H]2C(=O)O[C@H]([C@H](C)C[C@@H]2CC[C@@H](O)[C@H](OC)C2)CC(=O)[C@H](C)/C=C(\C)[C@@H](O)[C@@H](OC)C(=O)[C@H](C)C[C@H](C)/C=C/C=C/C=C/1C [SIROLIMUS]
EC50 (MCF7 [8]): < 1 nM
viability at 1 µM (MCF7 [37]): 30%

CNC(=O)c1cccc(-c2ccc3c(N4CCOC[C@@H]4C)nc(N4CCOC[C@@H]4C)nc3n2)c1
Activity (MCF7 [8]): Active
